# Values joined by “and” are separate entries in the source; they are usually repeats but may differ in a detail not shown here. Identical values can stand only once. Like-named read-outs stand apart in the source and are kept apart here.
# Tests used:
# Faah = target: T1, Faah (Homo sapiens, UniProt O00519); assay: FAAH Inhibitor Screening Assay Kit (Faah); assay type: biochemical; conditions: target Faah; mean ± SD of three independent repeats, Bliss method, eight data points
# T1 construct: purchased Cayman Chemical
# T1 sequence (O00519 1-579): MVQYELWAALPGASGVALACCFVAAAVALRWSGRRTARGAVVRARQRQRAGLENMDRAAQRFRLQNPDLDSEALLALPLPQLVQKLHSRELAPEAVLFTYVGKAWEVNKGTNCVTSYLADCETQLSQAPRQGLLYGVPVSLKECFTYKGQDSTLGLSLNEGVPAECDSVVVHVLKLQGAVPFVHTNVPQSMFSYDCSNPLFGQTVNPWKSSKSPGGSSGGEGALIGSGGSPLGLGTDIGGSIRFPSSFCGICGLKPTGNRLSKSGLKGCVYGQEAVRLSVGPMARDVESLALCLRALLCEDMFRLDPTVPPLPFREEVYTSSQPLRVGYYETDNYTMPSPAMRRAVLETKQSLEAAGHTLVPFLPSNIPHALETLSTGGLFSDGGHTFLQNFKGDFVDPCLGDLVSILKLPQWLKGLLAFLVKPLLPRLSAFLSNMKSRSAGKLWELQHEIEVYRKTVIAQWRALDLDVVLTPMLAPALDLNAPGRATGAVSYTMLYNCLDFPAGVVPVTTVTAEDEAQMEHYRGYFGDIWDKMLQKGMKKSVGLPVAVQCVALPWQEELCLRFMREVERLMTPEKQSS
# Protocol: (§1) To validate the practicability of WES model, we randomly selected Enpp2, Faah, PTGS2, PPARG, and REN, the five inflammation-related targets, and predicted their direct ligand-target interactions. The 24 top-scoring (hybrid-WES) and commercially available drug-target interactions (Table 3) were tested by the ligand-binding assays.
# (§2) Enpp2 (Autotaxin Inhibitor Screening Assay Kit), Faah (FAAH Inhibitor Screening Assay Kit), PTGS2 (COX Inhibitor Screening Assay Kit), PPARG (PPARγ Ligand Screening Assay Kit), and REN (Renin Inhibitor Screening Assay Kit) were purchased from Cayman Chemical, Ann Arbor, MI, USA. […] The activity of targets was detected according to manufacturer’s instructions. IC50 values were determined using the Bliss method according to the eight data points per drug. The same drug-target interaction was repeated independently three times to obtain a mean IC50 value and its standard deviation.
# REN = target: T2, REN (Homo sapiens, UniProt P00797); assay: Renin Inhibitor Screening Assay Kit (REN); assay type: biochemical; conditions: target REN; mean ± SD of three independent repeats, Bliss method, eight data points
# T2 construct: purchased Cayman Chemical
# T2 sequence (P00797 67-406): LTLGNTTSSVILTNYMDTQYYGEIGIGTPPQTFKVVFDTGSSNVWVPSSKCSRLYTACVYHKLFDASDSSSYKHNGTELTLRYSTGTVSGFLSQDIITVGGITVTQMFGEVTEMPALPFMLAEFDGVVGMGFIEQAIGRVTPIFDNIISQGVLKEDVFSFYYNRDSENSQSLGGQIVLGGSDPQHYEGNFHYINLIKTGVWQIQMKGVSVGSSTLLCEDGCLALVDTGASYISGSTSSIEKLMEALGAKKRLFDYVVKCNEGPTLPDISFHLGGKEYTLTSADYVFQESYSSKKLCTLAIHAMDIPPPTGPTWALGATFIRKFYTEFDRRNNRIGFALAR
# Protocol: as §1, §2
# PPARG = target: T3, PPARG (Homo sapiens, UniProt P37231); assay: PPARγ Ligand Screening Assay Kit (PPARG); assay type: binding; conditions: target PPARG; mean ± SD of three independent repeats, Bliss method, eight data points
# T3 sequence (P37231 1-505): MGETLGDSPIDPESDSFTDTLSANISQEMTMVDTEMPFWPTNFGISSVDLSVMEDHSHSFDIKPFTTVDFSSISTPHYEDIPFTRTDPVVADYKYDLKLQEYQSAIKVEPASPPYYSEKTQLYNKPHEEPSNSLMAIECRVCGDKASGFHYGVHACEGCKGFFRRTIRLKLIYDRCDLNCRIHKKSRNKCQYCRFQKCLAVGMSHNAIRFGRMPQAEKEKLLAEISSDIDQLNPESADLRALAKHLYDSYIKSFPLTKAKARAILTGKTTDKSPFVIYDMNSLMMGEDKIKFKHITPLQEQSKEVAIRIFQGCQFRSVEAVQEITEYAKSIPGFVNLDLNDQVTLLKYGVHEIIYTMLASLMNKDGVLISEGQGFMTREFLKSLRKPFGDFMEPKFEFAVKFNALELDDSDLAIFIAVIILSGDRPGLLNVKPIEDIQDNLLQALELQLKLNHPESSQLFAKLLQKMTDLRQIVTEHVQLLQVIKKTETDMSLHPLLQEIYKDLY
# Protocol: as §1, §2
# Enpp2 = target: T4, Enpp2 (Homo sapiens, UniProt Q13822); assay: Autotaxin Inhibitor Screening Assay Kit (Enpp2); assay type: biochemical
# T4 construct: purchased Cayman Chemical
# Protocol: as §1, §2
# PTGS2 = target: T5, PTGS2 (Homo sapiens, UniProt P35354); assay: COX Inhibitor Screening Assay Kit (PTGS2); assay type: biochemical; conditions: target PTGS2; mean ± SD of three independent repeats, Bliss method, eight data points
# T5 construct: purchased Cayman Chemical
# T5 sequence (P35354 18-604): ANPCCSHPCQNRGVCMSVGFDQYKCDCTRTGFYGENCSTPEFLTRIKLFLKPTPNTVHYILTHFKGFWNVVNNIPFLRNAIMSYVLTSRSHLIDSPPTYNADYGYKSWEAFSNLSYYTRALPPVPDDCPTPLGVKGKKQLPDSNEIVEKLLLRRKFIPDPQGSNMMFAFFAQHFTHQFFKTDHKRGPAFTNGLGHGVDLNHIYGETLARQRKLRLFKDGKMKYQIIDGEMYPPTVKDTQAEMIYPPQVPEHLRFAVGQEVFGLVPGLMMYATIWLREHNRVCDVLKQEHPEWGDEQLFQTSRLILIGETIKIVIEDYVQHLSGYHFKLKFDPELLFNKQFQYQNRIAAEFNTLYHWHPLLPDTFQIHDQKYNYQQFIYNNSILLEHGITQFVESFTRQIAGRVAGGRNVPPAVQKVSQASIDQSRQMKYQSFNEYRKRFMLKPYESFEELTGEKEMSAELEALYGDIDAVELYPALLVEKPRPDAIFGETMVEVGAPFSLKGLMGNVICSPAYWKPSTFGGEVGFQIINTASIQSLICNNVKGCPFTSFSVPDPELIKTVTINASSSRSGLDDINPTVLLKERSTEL
# Protocol: as §1, §2
# [1] = target Enpp2, mean ± SD of three independent repeats, Bliss method, eight data points, read-out: IC50 (μM):mean ± SD
compound,measurement,setting,value
CC/C=C\C/C=C\C/C=C\CCCCCCCC(=O)O [Alpha-linolenic acid],IC50,Faah,43.9 µM and 53.9 µM
CC(C)C[C@H](NC(=O)[C@H](CCc1ccccc1)NC(=O)CN1CCOCC1)C(=O)N[C@@H](Cc1ccccc1)C(=O)N[C@@H](CC(C)C)C(=O)[C@@]1(C)CO1 [Carfilzomib],IC50,REN,22 ± 6.4 µM
COC(=O)CCc1ccc(OCC(O)CNC(C)C)cc1 (stereo not drawn) [Esmolol],IC50,PPARG,40.8 ± 6.5 µM
CCCCCCCCc1ccc(CCC(N)(CO)CO)cc1 [Fingolimod],IC50,Enpp2; [1],115 ± 5.8 µM
CCN(CC)CC(=O)OCC(=O)[C@@]1(O)CC[C@H]2[C@@H]3CCC4=CC(=O)CC[C@]4(C)[C@H]3[C@@H](O)C[C@@]21C [Hydrocortamate],IC50,Enpp2; [1],218 ± 6.4 µM
CC(C)(C)NC(=O)[C@@H]1CN(Cc2cccnc2)CCN1C[C@@H](O)C[C@@H](Cc1ccccc1)C(=O)N[C@H]1c2ccccc2C[C@H]1O [Indinavir],IC50,REN,44.3 ± 12.1 µM
Cc1cccc(C)c1OCC(=O)N[C@@H](Cc1ccccc1)[C@@H](O)C[C@H](Cc1ccccc1)NC(=O)[C@H](C(C)C)N1CCCNC1=O [Lopinavir],IC50,REN,49.3 ± 10.3 µM
C/C(=C\C(=O)OCCCCCCCCC(=O)O)C[C@@H]1OC[C@H](C[C@@H]2O[C@H]2[C@@H](C)[C@H](C)O)[C@@H](O)[C@H]1O [Mupirocin],IC50,PTGS2,123 ± 7.4 µM
CC[C@H](C)C(=O)O[C@H]1C[C@H](O)C=C2C=C[C@H](C)[C@H](CC[C@@H](O)C[C@@H](O)CC(=O)O)[C@H]21 [Pravastatin],IC50,PTGS2,199 ± 12.3 µM
Cc1c(C(=O)NN2CCCCC2)nn(-c2ccc(Cl)cc2Cl)c1-c1ccc(Cl)cc1 [Rimonabant],IC50,PTGS2,138 ± 3.5 µM
CC(=O)OCC(=O)NCCCOc1cccc(CN2CCCCC2)c1 [Roxatidine acetate],IC50,Faah,34.5 ± 1.5 µM
CC(C)(C)NC(=O)[C@@H]1C[C@@H]2CCCC[C@@H]2CN1C[C@@H](O)[C@H](Cc1ccccc1)NC(=O)[C@H](CC(N)=O)NC(=O)c1ccc2ccccc2n1 [Saquinavir],IC50,REN,69.1 ± 4.2 µM
CCCCC[C@H](O)CC[C@@H]1[C@H]2Cc3cccc(OCC(=O)O)c3C[C@H]2C[C@H]1O [Treprostinil],IC50,PPARG,69 ± 17.5 µM
same,IC50 (μM):mean ± SD,PPARG,micromolar concentration range
CN[C@H](CC(C)C)C(=O)N[C@H]1C(=O)N[C@@H](CC(N)=O)C(=O)N[C@H]2C(=O)N[C@H]3C(=O)N[C@H](C(=O)N[C@H](C(=O)O)c4cc(O)cc(O)c4-c4cc3ccc4O)[C@H](O)c3ccc(c(Cl)c3)Oc3cc2cc(c3O[C@@H]2O[C@H](CO)[C@@H](O)[C@H](O)[C@H]2O[C@H]2C[C@](C)(N)[C@H](O)[C@H](C)O2)Oc2ccc(cc2Cl)[C@H]1O [Vancomycin],IC50,Enpp2,68.5 ± 7 µM
Cetrorelix (AFASYRLRPA),IC50,REN,156 ± 3.7 µM
Felypressin (CFFQNCPKG),IC50,REN,4.5 ± 7.1 µM
Pasireotide,IC50,Enpp2; [1],73.3 ± 9.7 µM

# Reference: article PMC4496667, “Large-scale Direct Targeting for Drug Repositioning and Discovery” (Scientific Reports, 2015)
